Assay results published in the CheMixHub viscosity set.
Several values for one entry are separate records, joined by “and”; a condition that tells them apart may be missing. Equal values may be shown once.

C1CCC2CCCCC2C1 (centres undefined)
viscosity
Conditions	293.15 K	298.15 K	303.15 K	308.15 K	313.15 K	318.15 K	323.15 K
100 kPa	2.507 mPa·s	2.272 mPa·s	2.07 mPa·s	–	1.741 mPa·s	–	1.457 mPa·s
101 kPa	2.453 mPa·s	2.223 mPa·s and 2.171 mPa·s	2.026 mPa·s	1.854 mPa·s	1.703 mPa·s	1.571 mPa·s	1.454 mPa·s

CC12CC3CC(C)(C1)CC(C)(C3)C2
100 kPa
Conditions	viscosity
293.15 K	2.641 mPa·s and 2.61 mPa·s
298.15 K	2.376 mPa·s and 2.35 mPa·s
303.15 K	2.147 mPa·s
308.15 K	1.951 mPa·s
313.15 K	1.781 mPa·s and 1.76 mPa·s
318.15 K	1.633 mPa·s
323.15 K	1.502 mPa·s

CCCCCCC
Conditions	viscosity
293.15 K, 100 kPa	0.379 mPa·s
293.15 K, 101 kPa	0.4002 mPa·s and 0.408 mPa·s
293.17 K, 101 kPa	0.409 mPa·s
293.2 K, 101.3 kPa	0.4084 mPa·s
296 K, 101.3 kPa	0.395 mPa·s and 0.397 mPa·s
298 K, 101.33 kPa	0.3899 mPa·s
298.15 K, 100 kPa	0.358 mPa·s
303 K, 101.33 kPa	0.374 mPa·s
303.15 K, 100 kPa	0.376 mPa·s and 0.337 mPa·s
303.15 K, 101.33 kPa	0.403 mPa·s and 0.381 mPa·s
308.15 K, 100 kPa	0.342 mPa·s and 0.318 mPa·s
308.15 K, 101.33 kPa	0.363 mPa·s
313.15 K, 100 kPa	0.301 mPa·s and 0.34 mPa·s
313.15 K, 101 kPa	0.331 mPa·s and 0.332 mPa·s and 0.3432 mPa·s
313.2 K, 101.3 kPa	0.3447 mPa·s
318.15 K, 101 kPa	0.326 mPa·s and 0.314 mPa·s and 0.3269 mPa·s
318.15 K, 101.33 kPa	0.317 mPa·s
323 K, 101.33 kPa	0.308 mPa·s
323.1 K, 101.3 kPa	0.3182 mPa·s
323.15 K, 101 kPa	0.3039 mPa·s

CCCCCCCC
Conditions	viscosity
293.15 K, 100 kPa	0.547 mPa·s and 0.512 mPa·s
293.15 K, 101 kPa	0.556 mPa·s and 0.539 mPa·s
298.15 K, 100 kPa	0.517 mPa·s and 0.48 mPa·s
298.15 K, 101.32 kPa	0.507 mPa·s
303.15 K, 100 kPa	0.452 mPa·s
303.15 K, 101 kPa	0.482 mPa·s
303.15 K, 101.33 kPa	0.4865 mPa·s and 0.479 mPa·s (2×) and 0.479 mPa·s
308.15 K, 100 kPa	0.468 mPa·s and 0.425 mPa·s
308.16 K, 101.3 kPa	0.4568 mPa·s
313.15 K, 100 kPa	0.447 mPa·s and 0.4 mPa·s and 0.429 mPa·s
318.15 K, 101.33 kPa	0.403 mPa·s
318.16 K, 101 kPa	0.4138 mPa·s
323.15 K, 100 kPa	0.385 mPa·s
323.15 K, 101 kPa	0.4049 mPa·s

CCCCCCCCCCCCCC
Conditions	viscosity
293.15 K, 101.33 kPa	2.282 mPa·s and 2.292 mPa·s and 2.292 mPa·s
298 K, 101.33 kPa	2.074 mPa·s
298.15 K, 100 kPa	2.15 mPa·s
298.15 K, 101.33 kPa	2.088 mPa·s and 2.091 mPa·s and 2.025 mPa·s
298.15 K, 103 kPa	2.048 mPa·s
303.15 K, 101 kPa	1.895 mPa·s and 1.895 mPa·s
303.15 K, 101.33 kPa	1.864 mPa·s
308.15 K, 101 kPa	1.715 mPa·s and 1.715 mPa·s
308.15 K, 103 kPa	1.685 mPa·s
313.15 K, 100 kPa	1.612 mPa·s
313.15 K, 101.33 kPa	1.548 mPa·s
318.15 K, 101.33 kPa	1.356 mPa·s
318.15 K, 103 kPa	1.413 mPa·s
323.15 K, 101.33 kPa	1.314 mPa·s

CCCCCCCCCCCCCC[P+](CCCCCC)(CCCCCC)CCCCCC.N#C[N-]C#N
viscosity [mPa·s]
Conditions	293.15 K	298.15 K	303.15 K	308.15 K	313.15 K	318.15 K	323.15 K
100 kPa	603	442	331	253	196	155	124
101 kPa	–	440	328	–	196	–	123

CCCCCO
Conditions	viscosity
293.15 K, 100 kPa	4.057 mPa·s and 4.155 mPa·s and 3.964 mPa·s
293.15 K, 101 kPa	3.939 mPa·s and 3.99 mPa·s and 4.06 mPa·s
293.15 K, 101.33 kPa	3.675 mPa·s and 4.109 mPa·s and 4.109 mPa·s
298.15 K, 100 kPa	3.512 mPa·s and 3.595 mPa·s
298.15 K, 101.3 kPa	3.302 mPa·s
303.15 K, 101.3 kPa	3 mPa·s and 2.832 mPa·s
308.15 K, 101.3 kPa	2.449 mPa·s
313.15 K, 101.3 kPa	2.3 mPa·s and 2.344 mPa·s
318 K, 101.3 kPa	2.075 mPa·s
318.15 K, 100 kPa	2.085 mPa·s
318.15 K, 101.3 kPa	2.066 mPa·s
323 K, 101.3 kPa	1.853 mPa·s
323.15 K, 101 kPa	1.784 mPa·s

CCOCCOCCO
101 kPa
Conditions	viscosity
293.15 K	4.291 mPa·s and 3.626 mPa·s
298.15 K	3.799 mPa·s and 3.686 mPa·s and 3.278 mPa·s
303.15 K	3.186 mPa·s and 2.862 mPa·s
308.15 K	2.839 mPa·s and 2.859 mPa·s and 2.507 mPa·s
313.15 K	2.511 mPa·s
318.15 K	2.358 mPa·s and 2.269 mPa·s

CCn1cc[n+](CCOC)c1.O=S(=O)([N-]S(=O)(=O)C(F)(F)F)C(F)(F)F
100 kPa
Conditions	viscosity [mPa·s]
293.15 K	43.63
298.15 K	35.49
303.15 K	29.33
308.15 K	24.58
313.15 K	20.86
318.15 K	18.03

CN(C)C=O
Conditions	viscosity
293.15 K, 100 kPa	0.855 mPa·s
293.15 K, 101.33 kPa	0.9248 mPa·s and 0.88 mPa·s
298.15 K, 100 kPa	0.82 mPa·s and 0.843 mPa·s
298.15 K, 101.3 kPa	0.792 mPa·s
298.15 K, 101.33 kPa	0.83 mPa·s
302.15 K, 101 kPa	1.032 mPa·s
303 K, 101.33 kPa	0.758 mPa·s
303.15 K, 101.3 kPa	0.7675 mPa·s and 0.7524 mPa·s
303.15 K, 101.33 kPa	0.78 mPa·s
305.15 K, 101 kPa	0.979 mPa·s
308 K, 101.33 kPa	0.721 mPa·s
308.15 K, 100 kPa	0.729 mPa·s and 0.718 mPa·s
308.15 K, 101.3 kPa	0.7077 mPa·s
308.15 K, 101.33 kPa	0.74 mPa·s
313.15 K, 100 kPa	0.687 mPa·s and 0.688 mPa·s
313.15 K, 101.3 kPa	0.6644 mPa·s
313.15 K, 101.33 kPa	0.7143 mPa·s and 0.7 mPa·s
318 K, 101.3 kPa	0.6348 mPa·s
318 K, 101.33 kPa	0.6348 mPa·s
318.15 K, 100 kPa	0.652 mPa·s
318.15 K, 101.33 kPa	0.67 mPa·s
323.15 K, 101.33 kPa	0.63 mPa·s

O=[N+]([O-])c1ccccc1
viscosity
Conditions	293.15 K	298.15 K	303.15 K	308.15 K	313.15 K	318.15 K	323.15 K
100 kPa	2.087 mPa·s	1.909 mPa·s	1.755 mPa·s	–	1.501 mPa·s	1.397 mPa·s	1.303 mPa·s
101 kPa	1.931 mPa·s	–	–	1.457 mPa·s and 1.242 mPa·s and 1.601 mPa·s	1.402 mPa·s	–	1.192 mPa·s
101.3 kPa	–	1.773 mPa·s	–	–	1.373 mPa·s	–	–
101.33 kPa	2.024 mPa·s and 2.079 mPa·s and 2.079 mPa·s	–	1.665 mPa·s	–	–	–	–
